From US20100119599A1 (ARCHER PHARMACEUTICALS, INC., priority 2006, published 2010) come the findings set out here.

One assay relates to Aβ1-40. The assay is described as follows: Measurement of Aβ1-40 in culture medium of 7W WT APP751 CHO cells by ELISA. It is filed as cell-based, Chinese hamster. The following applies: for activity at 5 µM: Cricetulus griseus, Table 1, 5 μM test compound, CHO cells stably transfected with human APP751, culture medium, ELISA, control DMSO, 0 = no detectable amount; for Aβ1-40 (% of control): CHO cells that overexpress APP751, zero = below the detection limit of the assay.

The next assay has as its system Aβ1-42. Kind of assay: Measurement of Aβ1-42 in culture medium of 7W WT APP751 CHO cells by ELISA. It is filed as cell-based, Chinese hamster. Conditions: for activity at 5 µM: Cricetulus griseus, Table 1, 5 μM test compound, CHO cells stably transfected with human APP751, culture medium, ELISA, control DMSO, 0 = no detectable amount, read-out: Aβ1-42 (% of control); for Aβ1-42 (% of control): CHO cells that overexpress APP751, zero = below the detection limit of the assay. A general note: In an ELISA, binding on a coated surface is turned into a signal by an enzyme label.
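Note: 5 µM test compound but RI-coded compounds at 10 µM for 24 hours.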

Regarding `CCOC(=O)C1=C(C)NC2=C(C(=O)CC(C)(C)C2)C1c1cccc(OC)c1OC` (stereo not drawn) [ST013184, ethyl 4-(2,3-dimethoxyphenyl)-2,7,7-trimethyl-5-oxo-1,4,6,7,8-pentahydroquinoline-3-carboxylate], the activity at 5 µM in the assay on Aβ1-40 worked out at 73.7%; with Aβ1-42, 60.3%.

Regarding `COc1cc(Br)c(C2C(C#N)=C(C)NC3=C2C(=O)CC(c2ccc(Cl)cc2)C3)cc1OC` (stereo not drawn) [ST017045, 4-(2-bromo-4,5-dimethoxyphenyl)-7-(4-chlorophenyl)-2-methyl-5-oxo-1,4,6,7,8-pentahydroquinoline-3-carbonitrile], the values for the activity at 5 µM in the assay on Aβ1-40 and with Aβ1-42 were 42.6% and 46%, respectively.

For `CCc1ccc(C2C(C(=O)OCc3ccccc3)=C(C)NC3=C2C(=O)CCC3)cc1` (stereo not drawn) [ST015031, phenylmethyl 4-(4-ethylphenyl)-2-methyl-5-oxo-1,4,6,7,8-pentahydroquinoline-3-carboxylate], the activity at 5 µM with Aβ1-40 was 33.1%; in the assay with Aβ1-42, 71.3%.

Consider `CC1=C(C(=O)OCc2ccccc2)C(c2cc3c(cc2[NH+]([O-])O)OCO3)C2=C(CC(C)(C)CC2=O)N1` (stereo not drawn) [ST013052, phenylmethyl 2,7,7-trimethyl-4-(6-nitro(2H-benzo[d]1,3-dioxolan-5-yl))-5-oxo-1,4,6,7,8-pentahydroquinoline-3-carboxylate], for which the figures for the activity at 5 µM in the assay with Aβ1-40 and in the assay with Aβ1-42 were 68.8% and 72.4%, respectively.

With `CCCCCOC(=O)C1=C(C)NC2=C(C(=O)CC(C)(C)C2)C1c1ccc(C)cc1` (stereo not drawn) [ST216602, pentyl 2,7,7-trimethyl-4-(4-methylphenyl)-5-oxo-1,4,6,7,8-pentahydroquinoline-3-carboxylate], the activity at 5 µM was determined as 2.65% with Aβ1-40 and 5.01% in the assay with Aβ1-42.

Take `CC1=C(C(=O)Nc2ccccc2)C(c2ccsc2)C(C#N)=C(SCC(=O)Nc2ccccc2C)N1` (stereo not drawn) [RI_48]: in the assay with Aβ1-40, the “Aβ1-40 (% of control)” value is given as 86.5 % of control. In addition, in the assay on Aβ1-42, the “Aβ1-42 (% of control)” value is given as 100 % of control.

On to `CCOC(=O)C1=C(C)NC2=C(C(=O)CC(c3ccccc3)C2)C1c1cc(OC)ccc1OC` (stereo not drawn) [ST015254, ethyl 4-(2,5-dimethoxyphenyl)-2-methyl-5-oxo-7-phenyl-1,4,6,7,8-pentahydroquinoline-3-carboxylate], for which the activity at 5 µM in the assay on Aβ1-40 worked out at 46.9%; in the assay on Aβ1-42, 33.8%.

In the case of `CC1=C(C(=O)OC2CCCC2)C(c2ccc(C)o2)C2=C(CC(c3cccs3)CC2=O)N1` (stereo not drawn) [ST051567, cyclopentyl 2-methyl-4-(5-methyl(2-furyl))-5-oxo-7-(2-thienyl)-1,4,6,7,8-pentahydroquinoline-3-carboxylate], the activity at 5 µM in the assay on Aβ1-40 stood at 60.4%; in the assay on Aβ1-42 it was 85%.

`COc1ccc(/C=c2\sc3n(c2=O)C(N)=C(C#N)C(c2ccc(OC)cc2OC)C=3C#N)c(OC)c1` (stereo not drawn) [ST025017, 5-amino-7-(2,4-dimethoxyphenyl)-2-[(2,4-dimethoxyphenyl)methylene]-3-oxo-4,7-dihydro-1,3-thiazolidino[3,2-a]pyridine-6,8-dicarbonitrile]: in the assay with Aβ1-40, the “Aβ1-40 (% of control)” value is recorded as 64.54 % of control. Moreover, the “Aβ1-42 (% of control)” value with Aβ1-42 was 72.39 % of control.

Take `CCOC(=O)C1=CN(c2cc(C)ccc2C)C=C(C(=O)OCC)C1c1ccc(OC)c(OC)c1OC` [ST052487, ethyl 1-(2,5-dimethylphenyl)-5-(ethoxycarbonyl)-4-(2,3,4-trimethoxyphenyl)-1,4-dihydropyridine-3-carboxylate]: the “Aβ1-40 (% of control)” value with Aβ1-40 is 11.56 % of control. Also, in the assay with Aβ1-42, the “Aβ1-42 (% of control)” value is 15.1 % of control.

Regarding `CC1=C(C(=O)Nc2ccc(Cl)cc2)C(c2ccccc2)C(C#N)=C(SCC(=O)Nc2ccccc2)N1` (stereo not drawn) [RI_42], the “Aβ1-40 (% of control)” value with Aβ1-40 is listed as 27.2 % of control. For the same compound, the “Aβ1-42 (% of control)” value in the assay on Aβ1-42 is recorded as 36.2 % of control.

For `CC1=C(C(=O)Nc2ccccc2)C(c2cccs2)C(C#N)=C(SCC(=O)Nc2cccc(Cl)c2C)N1` (stereo not drawn) [RI_38], the “Aβ1-40 (% of control)” value in the assay on Aβ1-40 is 62.5 % of control. Besides, the “Aβ1-42 (% of control)” value in the assay on Aβ1-42 was 103.4 % of control.

As to `CC1=C(C(=O)Nc2ccccc2)C(c2cccs2)C(C#N)=C(SCC(=O)NCCc2ccccc2)N1` (stereo not drawn) [RI_27], the “Aβ1-40 (% of control)” value with Aβ1-40 is given as 34.4 % of control. The “Aβ1-42 (% of control)” value with Aβ1-42 is reported as 26.5 % of control.

Regarding `CCCCCOC(=O)C1=C(C)NC2=C(C(=O)CCC2)C1c1ccc(OC)c(OC)c1OC` (stereo not drawn) [ST013346, pentyl 2-methyl-5-oxo-4-(2,3,4-trimethoxyphenyl)-1,4,6,7,8-pentahydroquinoline-3-carboxylate], the values for the activity at 5 µM in the assay on Aβ1-40 and with Aβ1-42 were 16.3% and 77.7%, respectively.

On to `CC1=C(C(=O)OCCc2ccccc2)C(c2ccc(C)s2)C2=C(CC(C)(C)CC2=O)N1` (stereo not drawn) [ST052344, 2-phenylethyl 2,7,7-trimethyl-4-(5-methyl(2-thienyl))-5-oxo-1,4,6,7,8-pentahydroquinoline-3-carboxylate], for which the activity at 5 µM in the assay on Aβ1-40 was found to be 24.1%; in the assay with Aβ1-42 it was 24.4%.

On to `COC(=O)C1=CN(Cc2ccc(OC)c(OC)c2)C=C(C(=O)OC)C1c1cccs1` [ST038115, methyl 1-[(3,4-dimethoxyphenyl)methyl]-5-(methoxycarbonyl)-4-(2-thienyl)-1,4-d ihydropyridine-3-carboxylate], for which the “Aβ1-40 (% of control)” value in the assay with Aβ1-40 is 42.45 % of control. The “Aβ1-42 (% of control)” value with Aβ1-42 is 91 % of control.

For the compound `COC(=O)C1=CN(Cc2ccc3c(c2)OCO3)C=C(C(=O)OC)C1c1ccc(OC)c(OC)c1` [ST038114, methyl 1-(2H-benzo[3,4-d]1,3-dioxolen-5-ylmethyl)-4-(3,4-dimethoxyphenyl)-5-(methoxycarbonyl)-1,4-dihydropyridine-3-carboxylate], the “Aβ1-40 (% of control)” value in the assay on Aβ1-40 was 48 % of control. The “Aβ1-42 (% of control)” value with Aβ1-42 is 95.92 % of control.

For the compound `CC1=C(C(=O)OC2CCCCC2)C(c2ccccc2OCc2ccccc2)C2=C(CCCC2=O)N1` (stereo not drawn) [ST013271, cyclohexyl 2-methyl-5-oxo-4-[2-(phenylmethoxy)phenyl]-1,4,6,7,8-pentahydroquinoline-3-carboxylate], the activity at 5 µM in the assay with Aβ1-40 came out at 6.92%; in the assay with Aβ1-42, 39.9%.

As to `CCc1cccc(NC(=O)CSC2=C(C#N)C(c3cc(Br)cs3)C(C(=O)Nc3ccccc3)=C(C)N2)c1` (stereo not drawn) [RI_80], the “Aβ1-40 (% of control)” value in the assay on Aβ1-40 is 64.37 % of control. Besides, the “Aβ1-42 (% of control)” value in the assay on Aβ1-42 is 54.3 % of control.

`CC1=C(C#N)C(c2ccc(Cl)cc2)C2=C(CC(C)(C)CC2=O)N1` (stereo not drawn) [ST013410, 4-(4-chlorophenyl)-2,7,7-trimethyl-5-oxo-1,4,6,7,8-pentahydroquinoline-3-carbonitrile]: the activity at 5 µM in the assay on Aβ1-40 was determined as 22%; in the assay on Aβ1-42, 26%.

Take `COC(=O)C1=C(C)NC2=C(C(=O)CC(c3ccc(OC)cc3)C2)C1c1ccc(C)cc1` (stereo not drawn) [ST013332, methyl 7-(4-methoxyphenyl)-2-methyl-4-(4-methylphenyl)-5-oxo-1,4,6,7,8-pentahydroquinoline-3-carboxylate]: the activity at 5 µM turned out to be 45.1% in the assay on Aβ1-40 and 68% with Aβ1-42.

With `COc1ccc(COC(=O)C2=C(C)NC3=C(C(=O)CCC3)C2c2ccccc2C(F)(F)F)cc1` (stereo not drawn) [ST052271, (4-methoxyphenyl)methyl 2-methyl-5-oxo-4-[2-(trifluoromethyl)phenyl]-1,4,6,7,8-pentahydroquinoline-3-carboxylate], the activity at 5 µM came to 25.8% with Aβ1-40 and 23.9% with Aβ1-42.

Turning to `CC1=C(C(=O)OCCOc2ccccc2)C(c2ccc3c(c2)OCO3)C2=C(CC(C)(C)CC2=O)N1` (stereo not drawn) [ST015103, 2-phenoxyethyl 4-(2H-benzo[3,4-d]1,3-dioxolan-5-yl)-2,7,7-trimethyl-5-oxo-1,4,6,7,8-pentahydroquinoline-3-carboxylate], the activity at 5 µM came to 35.3% in the assay on Aβ1-40 and 73.5% in the assay on Aβ1-42.

Consider `CC(=O)C1=C(C)NC(SCC(=O)Nc2c(C)cc(Br)cc2Br)=C(C#N)C1c1cc(C)cs1` (stereo not drawn) [ST048506, 2-[5-acetyl-3-cyano-6-methyl-4-(4-methyl(2-thienyl))(2-1,4-dihydropyridylthio)]-N-(2,4-dibromo-6-methylphenyl)acetamide], for which the “Aβ1-40 (% of control)” value in the assay on Aβ1-40 is reported as 91.16 % of control. The “Aβ1-42 (% of control)” value with Aβ1-42 was 65.58 % of control.

In the case of `COC(=O)C1=C(C)N(C)C(C)=C(C(=O)OC)C1c1cccc(Oc2ccccc2)c1` [ST024552, methyl 5-(methoxycarbonyl)-1,2,6-trimethyl-4-(3-phenoxyphenyl)-1,4-dihydropyridine-3-carboxylate], in the assay on Aβ1-40, the “Aβ1-40 (% of control)” value is 57.26 % of control. Besides, in the assay on Aβ1-42, the “Aβ1-42 (% of control)” value is given as 74.81 % of control.

Turning to `CCOC(=O)C1=C(N)n2c(s/c(=C/c3ccco3)c2=O)=C(C(=O)OCC)C1c1ccco1` (stereo not drawn) [ST011765, ethyl 5-amino-6-(ethoxycarbonyl)-7-(2-furyl)-2-(2-furylmethylene)-3-oxo-4,7-dihydro-1,3-thiazolidino[3,2-a]pyridine-8-carboxylate], the “Aβ1-40 (% of control)” value in the assay on Aβ1-40 is listed as 42.57 % of control. In the assay on Aβ1-42, the “Aβ1-42 (% of control)” value is recorded as 29.42 % of control.

`COCCOC(=O)C1=C(C)NC2=C(C(=O)CCC2)C1c1ccccc1OC` (stereo not drawn) [ST013365, 2-methoxyethyl 4-(2-methoxyphenyl)-2-methyl-5-oxo-1,4,6,7,8-pentahydroquinoline-3-carboxylate]: the activity at 5 µM in the assay on Aβ1-40 was found to be 84.5%; in the assay with Aβ1-42 it was 56%.

On to `CC1=C(C(=O)Nc2ccccc2)C(c2ccsc2)C(C#N)=C(SCC(=O)Nc2ccc(C(C)C)cc2)N1` (stereo not drawn) [RI_46], for which the “Aβ1-40 (% of control)” value in the assay with Aβ1-40 was 74.4 % of control. Besides, the “Aβ1-42 (% of control)” value in the assay with Aβ1-42 is given as 70.2 % of control.

For `COc1ccc(OC)c(C2C(C#N)=C(C)NC3=C2C(=O)CC(c2ccccc2)C3)c1` (stereo not drawn) [ST018638, 4-(2,5-dimethoxyphenyl)-2-methyl-5-oxo-7-phenyl-1,4,6,7,8-pentahydroquinoline-3-carbonitrile], the activity at 5 µM in the assay on Aβ1-40 turned out to be 45.4%; in the assay with Aβ1-42, 53.8%.

`COc1cccc(NC(=O)CSC2=C(C#N)C(c3ccsc3)C(C(=O)Nc3ccccc3)=C(C)N2)c1` (stereo not drawn) [RI_51]: the “Aβ1-40 (% of control)” value in the assay on Aβ1-40 was 53.5 % of control. The “Aβ1-42 (% of control)” value with Aβ1-42 is on record as 58 % of control.
